Reference: US9283242B2, “Uses of dihydro bases” (priority 2013, dated 2016)
Entries after “also recorded” stand apart in the source; their conditions may differ.

What was measured:
[1] = Phase I and II clinical trials; cited from earlier work
[2] = Variable temperature FTIR and 2D IR, tautomerism in aqueous solution; format: physicochemical; settings: deuterated 0.5 M phosphate buffer pD 7.9, 10-80° C.
Procedure: For both 1D FTIR and 2D IR experiments, the H/D exchanged KP1212 was dissolved at a concentration of 20 mg/ml (88 mM) in 0.5 M phosphate buffer pD (pH reading in D2O) 7.9. About 25 μl of sample solution was sandwiched between two CaF2 windows separated by a 50 μm TEFLON spacer. Variable-temperature FTIR spectra were collected using Nicolet 380 FTIR spectrometer at 1.0 cm^−1 resolution with 16 scans per spectrum. Spectra for both the sample and the D2O were collected with the same procedure and the solvent spectra were subtracted from the sample spectra.
Absorptive 2D IR spectra were collected using a 2D IR spectrometer as described in detail previously (Chung, H. S., Khalil, M., Smith, A. W. & Tokmakoff, A. Transient two-dimensional IR spectrometer for probing nanosecond temperature-jump kinetics. Rev. Sci. Instrum. 78, 063101 (2007)). The relative polarizations of the pulses were set to be perpendicular (ZZYY). The waiting time (τ2) between the first two pulses and the third pulse was fixed at 150 fs. The coherence time between the first and the second pulse was scanned in 4 fs steps from −60 fs to 2.8 ps and 2.0 ps for rephasing and non-rephasing spectra, respectively. […]
2D IR spectroscopy is analogous to 2D NMR: sequences of ultrafast IR pulses are employed to excite molecular vibrations, and the energy flow from one vibration to others is then detected. […]

NC1=NC(=O)N([C@H]2C[C@H](O)[C@@H](CO)O2)CN1 [KP1212, 5-aza-5,6-dihydro-2′-deoxycytidine]
safety in clinical trials [1]: safe | tautomerism by FTIR and 2D IR [2]: multiple tautomeric forms; also recorded: different tautomeric forms
